Laboratory results from patent US8034940B2, “Modulators of glucocorticoid receptor, AP-1, and/or NF-κB activity and use thereof” (Bristol-Myers Squibb Company, priority 2006, dated 2011).

Molecular target: T1, human full-length glucocorticoid receptor (Homo sapiens, UniProt P04150)
T1 sequence (P04150 1-777): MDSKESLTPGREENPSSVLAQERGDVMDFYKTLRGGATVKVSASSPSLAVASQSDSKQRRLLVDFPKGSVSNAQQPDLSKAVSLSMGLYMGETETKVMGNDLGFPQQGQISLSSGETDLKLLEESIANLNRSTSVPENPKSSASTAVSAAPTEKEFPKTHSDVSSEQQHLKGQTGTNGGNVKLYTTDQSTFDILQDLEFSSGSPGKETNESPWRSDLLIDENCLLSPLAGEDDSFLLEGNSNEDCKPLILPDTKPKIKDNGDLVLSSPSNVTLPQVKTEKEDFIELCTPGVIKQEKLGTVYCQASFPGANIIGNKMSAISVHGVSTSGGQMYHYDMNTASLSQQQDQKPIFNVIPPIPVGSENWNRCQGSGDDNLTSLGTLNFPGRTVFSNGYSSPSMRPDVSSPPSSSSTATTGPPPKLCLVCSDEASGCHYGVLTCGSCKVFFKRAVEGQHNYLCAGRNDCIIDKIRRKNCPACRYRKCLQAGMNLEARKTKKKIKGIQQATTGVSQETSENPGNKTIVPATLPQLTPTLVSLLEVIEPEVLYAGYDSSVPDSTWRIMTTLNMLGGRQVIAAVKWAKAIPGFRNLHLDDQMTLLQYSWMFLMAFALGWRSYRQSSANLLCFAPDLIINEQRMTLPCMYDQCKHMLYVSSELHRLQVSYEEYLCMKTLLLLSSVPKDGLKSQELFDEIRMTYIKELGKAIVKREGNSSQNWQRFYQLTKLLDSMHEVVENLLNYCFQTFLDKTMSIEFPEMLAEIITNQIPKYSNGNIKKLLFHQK
Assay: Glucocorticoid Receptor Binding Assay (I), fluorescence polarization, Fluormone GS Red
Set-up: purified human recombinant full-length glucocorticoid receptor; purchased Invitrogen Part #2893
Conditions: not given
Experimental: Glucocorticoid Receptor Binding Assay (I)^a
Briefly, purified human recombinant full-length glucocorticoid receptor (2 nM) was mixed with fluorescently labeled glucocorticoid (1 nM Fluormone GS Red) in the presence or absence of test compound. After two hour incubation at room temperature in the dark, the fluorescence polarization (FP) of the samples was measured. […] Test compounds were analyzed in the concentration range from 8.5E-05 μM to 5 μM.

SMILES | Ki
CC(C)(C(=O)Nc1nncs1)[C@H]1c2ccccc2Oc2nc(-c3ccc(C(N)=O)cc3)ccc21 [Example 215] | 2.5 nM
CC(C)(C(=O)Nc1nncs1)[C@H]1c2ccccc2Oc2nc(-c3ccc(C(=O)O)cc3)ccc21 [Example 174] | 10.2 nM
Cc1nnc(NC(=O)C(C)(C)[C@H]2c3ccccc3Oc3nc(-c4ccc(C(=O)N5CCC(=O)CC5)cc4)ccc32)s1 [Example 475] | 18.3 nM

Same assay, conditions: GR Binding Assay (I); read-out: GR (Ki, nM) (GR Binding Assay (I))

SMILES | Ki
CN(C)C(=O)c1ccc(-c2ccc3c(n2)Oc2ccccc2C3C(C)(C)C(=O)Nc2ncn[nH]2)cc1 (stereo not shown) [Example 439] | 65.8 nM
CC(C)(C(=O)Nc1nncs1)[C@H]1c2ccccc2Oc2nc(-c3ccc(C(=O)NCCCO)cc3)ccc21 [Example 359] | 30.1 nM
CN(C)C(=O)c1ccc(-c2ccc3c(n2)Oc2ccccc2C3C2(C(=O)Nc3nncs3)CC2)cc1 (stereo not shown) [Example 489] | 144 nM
CN(C)C(=O)c1ccc(-c2ccc3c(c2)Oc2ncccc2C3C(C)(C)C(=O)Nc2nncs2)cc1 (stereo not shown) [Example 490] | 14.8 nM
CC(C)(C(=O)Nc1nncs1)C1c2ccccc2Oc2cc(-c3ccc(C(=O)O)cn3)ccc21 (stereo not shown) [Example 101] | 19.8 nM
Cc1nnc(NC(=O)C(C)(C)[C@H]2c3ccccc3Oc3nc(-c4ccc(OC(C)C)c(Cl)c4)ccc32)s1 [Example 476] | 16.4 nM
CC(C)(C(=O)Nc1nncs1)C1c2ccccc2Oc2cc(-c3ncc(C(=O)O)cn3)ccc21 (stereo not shown) [Example 108] | 13.6 nM
CN(C)[C@H]1CCN(C(=O)c2ccc(-c3ccc4c(n3)Oc3ccccc3[C@@H]4C(C)(C)C(=O)Nc3nncs3)cc2)C1 [Example 308] | 313 nM
CC(C)(C(=O)Nc1nncs1)[C@H]1c2ccccc2Oc2nc(-c3ccc(OC4CCCCC4)c(F)c3)ccc21 [Example 243] | > 1150 nM
Cc1cc(-c2ccc3c(n2)Oc2ccccc2[C@@H]3C(C)(C)C(=O)Nc2nncs2)ccc1OC(C)C [Example 224] | 8.06 nM
CC(C)(C(=O)Nc1nncs1)C1c2ccccc2Oc2cc(-c3ccc(C(=O)O)s3)ccc21 (stereo not shown) [Example 103] | 6.06 nM
CC(C)(C(=O)Nc1nncs1)[C@H]1c2ccccc2Oc2nc(-c3ccc(C(=O)N4CCCC(F)(F)C4)cc3)ccc21 [Example 287] | 16.8 nM
CN(C)C(=O)c1ccc(-c2ccc3c(n2)Oc2ccccc2[C@H]3C(C)(C)C(=O)Nc2nncs2)cc1 [Example 168] | 486 nM
CC(C)(C(=O)Nc1nncs1)[C@H]1c2ccccc2Oc2nc(-c3ccc(C(=O)N[C@H]4CCC[C@H]4C(N)=O)cc3)ccc21 [Example 360] | 154 nM
CC(C)(C(=O)Nc1nncs1)[C@H]1c2ccccc2Oc2nc(-c3ccc(C(=O)NC4CCCC4)cc3)ccc21 [Example 351] | 147 nM
CC(C)(C(=O)Nc1nncs1)[C@H]1c2ccccc2Oc2nc(C3=CCNCC3)ccc21 [Example 407] | 958 nM
CC(C)(C(=O)Nc1nncs1)[C@H]1c2ccccc2Oc2nc(C#N)ccc21 [Example 395] | 1.19 nM
CC(C)NC(=O)c1ccc(-c2ccc3c(n2)Oc2ccccc2[C@@H]3C(C)(C)C(=O)Nc2nncs2)cc1 [Example 353] | 13 nM
CN(C)C(=O)c1ccc(-c2ccc3c(n2)Oc2ccccc2C3CC(=O)Nc2nncs2)cc1 (stereo not shown) [Example 491] | > 1150 nM
CC(C)(C(=O)Nc1cnns1)[C@H]1c2ccccc2Oc2nc(-c3ccc(C(=O)N4CCCC4)c(F)c3)ccc21 [Example 414] | 589 nM
Cc1ccn(-c2ccc3c(n2)Oc2ccccc2[C@@H]3C(C)(C)C(=O)Nc2nncs2)c(=O)c1 [Example 405] | 424 nM
CC(C)(C(=O)Nc1nncs1)[C@H]1c2ccccc2Oc2nc(-c3ccc(C(=O)N4CCNC(=O)C4)cc3)ccc21 [Example 296] | 19.1 nM

SMILES | Ki
CC(C)(C)NC(=O)c1ccc(-c2ccc3c(n2)Oc2ccccc2[C@@H]3C(C)(C)C(=O)Nc2nncs2)cc1 [Example 352] | 42.1 nM
CCN(CCO)C(=O)c1ccc(-c2ccc3c(n2)Oc2ccccc2[C@@H]3C(C)(C)C(=O)Nc2nncs2)cc1 [Example 320] | 13.1 nM
CN1CCN(C(=O)c2ccc(-c3ccc4c(n3)Oc3ccccc3[C@@H]4C(C)(C)C(=O)Nc3nncs3)cc2)CC1 [Example 256] | 180 nM
CC(C)(C(=O)Nc1nncs1)[C@H]1c2ccccc2Oc2nc(C(=O)NCc3ccccc3)ccc21 [Example 396] | 10.6 nM
COc1cc(-c2ccc3c(n2)Oc2ccccc2[C@@H]3C(C)(C)C(=O)Nc2nncs2)ccc1C(=O)N(C)C [Example 347] | 5.63 nM
CC(C)(C(=O)Nc1nncs1)C1c2cccnc2Oc2c(F)cccc21 (stereo not shown) [Example 72] | > 1150 nM
CN(C)C(=O)n1cc(-c2ccc3c(n2)Oc2ccccc2[C@@H]3C(C)(C)C(=O)Nc2nncs2)cn1 [Example 453] | 17.6 nM
CC(C)(C(=O)Nc1nncs1)[C@H]1c2ccccc2Oc2nc(-c3ccc(S(=O)(=O)N4CCOCC4)cc3)ccc21 [Example 233] | 11.3 nM
CCCCCCc1ccc2c(n1)Oc1ccccc1[C@@H]2C(C)(C)C(=O)Nc1nncs1 [Example 437] | 11.1 nM
CC(C)(C(=O)Nc1nncs1)[C@H]1c2ccccc2Oc2nc(-c3ccc4c(c3)CCC4=O)ccc21 [Example 451] | 5.57 nM
Cc1nnc(-c2ccc(-c3ccc4c(n3)Oc3ccccc3[C@@H]4C(C)(C)C(=O)Nc3nncs3)cc2)o1 [Example 237] | 6.04 nM
CC(C)CC1CCCN1C(=O)c1ccc(-c2ccc3c(n2)Oc2ccccc2[C@@H]3C(C)(C)C(=O)Nc2nncs2)cc1 (stereo partly shown) [Example 317] | 23.7 nM
CCN(CC)C(=O)c1ccc(-c2ccc3c(n2)Oc2ccccc2[C@@H]3C(C)(C)C(=O)Nc2nncs2)cc1OC [Example 262] | 18.2 nM
CNC(=O)c1ccc2c(c1)Oc1ccccc1C2C(C)(C)C(=O)Nc1nncs1 (stereo not shown) [Example 117] | 123 nM
COC[C@@H]1CCCN1C(=O)c1ccc(-c2ccc3c(n2)Oc2ccccc2[C@@H]3C(C)(C)C(=O)Nc2nncs2)cc1 [Example 272] | 12.6 nM
CC(C)(C(=O)Nc1nncs1)C1c2ccccc2Oc2cc(NC(=O)NCc3ccccc3)ccc21 (stereo not shown) [Example 122] | 80 nM
CC(C)(C(=O)Nc1nncs1)C1c2ccccc2Oc2cc(C(=O)O)ccc21 (stereo not shown) [Example 114] | 49.9 nM
CC(C)(C(=O)Nc1nncs1)[C@H]1c2ccccc2Oc2nc(N3CCC(C(=O)N4CCCC4)CC3)ccc21 [Example 403] | 61.2 nM
CN(C)C(=O)c1ccc(-c2ccc3c(n2)Oc2ccccc2C3C(C)(C)C(=O)Nc2ncc[nH]2)cc1 (stereo not shown) [Example 440] | 21 nM
CC(C)(C(=O)Nc1nncs1)[C@H]1c2ccccc2Oc2nc(-c3ccc(C(=O)N(CCO)CCO)cc3)ccc21 [Example 304] | 149 nM
CC(C)(C(=O)Nc1nncs1)[C@H]1c2ccccc2Oc2nc(-c3ccc(C(=O)N4CCC[C@@H](O)C4)cc3)ccc21 [Example 284] | 17.4 nM

System: AP-1 induced transcriptional activity
Assay: Cellular Transrepressional Assay (AP-1 luciferase reporter, PMA-activated A549 cells)
Assay type: cell-based
Conditions: Cellular Transrepression Assay
Method in brief: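 Compounds tested from 0.1 nM to 40 μM during a 7 h PMA (10 ng/ml) stimulation of A549 cells stably transfected with 7× AP-1 sites driving luciferase. Repression expressed as % reduction of PMA-induced luminescence; EC50 by curve fitting.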

SMILES | EC50
CC(C)(C(=O)Nc1nncs1)[C@H]1c2ccccc2Oc2nc(-c3ccc(O)c(F)c3)ccc21 [Example 223] | 839 nM
Cc1cnc(NC(=O)C(C)(C)C2c3ccccc3Oc3nc(-c4ccc(C(=O)N(C)C)cc4)ccc32)s1 (stereo not shown) [Example 364] | 244 nM
CN(CCC#N)C(=O)c1ccc(-c2ccc3c(n2)Oc2ccccc2[C@@H]3C(C)(C)C(=O)Nc2nncs2)cc1 [Example 267] | 569 nM

Same assay, conditions: Homo sapiens, A549, 7 h, maximum inhibition, Cellular Transrepression Assay; read-out: AP-1 Max % inh (Cellular Transrepression Assay)

SMILES | Emax
CC(C)(C(=O)Nc1nc(-c2cccc3ccccc23)cs1)C1c2ccccc2Sc2ccccc21 [Example 6] | 67.9%
CN1CCN(c2ccc3c(n2)Oc2ccccc2C3C(C)(C)C(=O)Nc2nncs2)CC1 (stereo not shown) [Example 131] | 45.6%
Cc1ccc(-c2csc(NC(=O)C(C)(C)C3c4ccccc4Oc4ccccc43)n2)c2ccccc12 [Example 31] | 69.4%
Cc1ccc(-c2csc(NC(=O)C(C)(C)C3c4ccccc4Cc4ccccc43)n2)c2ccccc12 [Example 16] | 59.9%
CN(C)C(=O)c1ccc(-c2ccc3c(n2)Oc2ccccc2[C@@H]3C(C)(C)C(=O)Nc2nnc(CF)s2)cc1 [Example 432] | 40.2%
C[S+]([O-])c1cnc(NC(=O)C(C)(C)[C@H]2c3ccccc3Oc3nc(-c4ccc(C(=O)N5CCCC5)c(F)c4)ccc32)s1 (stereo partly shown) [Example 427] | 25.1%

Same assay, conditions: Homo sapiens, A549, Cellular Transrepression Assay

SMILES | EC50
CC(C)(C(=O)Nc1nc(-c2cccc3ccccc23)cs1)C1c2ccccc2Sc2ccccc21 [Example 6] | 461 nM
CN1CCN(c2ccc3c(n2)Oc2ccccc2C3C(C)(C)C(=O)Nc2nncs2)CC1 (stereo not shown) [Example 131] | 970 nM
Cc1ccc(-c2csc(NC(=O)C(C)(C)C3c4ccccc4Oc4ccccc43)n2)c2ccccc12 [Example 31] | 179 nM
Cc1ccc(-c2csc(NC(=O)C(C)(C)C3c4ccccc4Cc4ccccc43)n2)c2ccccc12 [Example 16] | 303 nM
CN(C)C(=O)c1ccc(-c2ccc3c(n2)Oc2ccccc2[C@@H]3C(C)(C)C(=O)Nc2nnc(CF)s2)cc1 [Example 432] | 52.7 nM
C[S+]([O-])c1cnc(NC(=O)C(C)(C)[C@H]2c3ccccc3Oc3nc(-c4ccc(C(=O)N5CCCC5)c(F)c4)ccc32)s1 (stereo partly shown) [Example 427] | 188 nM

Same assay, conditions: maximum inhibition, Cellular Transrepression Assay

SMILES | AP-1 Max % inh (Cellular Transrepression Assay)
CC(C)(C(=O)Nc1nncs1)[C@H]1c2ccccc2Oc2nc(-c3ccc(O)c(F)c3)ccc21 [Example 223] | 27.87%
Cc1cnc(NC(=O)C(C)(C)C2c3ccccc3Oc3nc(-c4ccc(C(=O)N(C)C)cc4)ccc32)s1 (stereo not shown) [Example 364] | 58.90%
CN(CCC#N)C(=O)c1ccc(-c2ccc3c(n2)Oc2ccccc2[C@@H]3C(C)(C)C(=O)Nc2nncs2)cc1 [Example 267] | 40.78%
